Converted amounts (≈) assume the structure as drawn.
Experiment: Cytotoxicity against human KBVIN cells
Assay type: functional, cell-based

COc1cc([C@@H]2c3cc4c(cc3[C@@H](O[C@@H]3O[C@@H]5CO[C@@H](C)O[C@H]5[C@H](O)[C@H]3O)[C@H]3COC(=O)[C@H]23)OCO4)cc(OC)c1O [ETOPOSIDE] gave an EC50 of 8.8 mg/L (≈ 15 µM).
